Experimental data published in patent US9464064B2, “HCV helicase inhibitors and methods of use thereof” (University of Kansas, priority 2011, dated 2016).

Molecular target: T1, HCV NS3 helicase NS3h_1b(con1) (Hepatitis C virus genotype 1b, UniProt Q9WMX2)
T1 construct: truncated C-terminally His-tagged NS3 proteins lacking the N-terminal protease, called NS3h; His-tag (C); made in house
Test: MBHA screen of NCI mechanistic set library at 20 μM (percent inhibition, compound interference)
Assay type: biochemical
Conditions: compounds at 20 μM; for Inh. (%) (Inhibition): calculated from Equation 1
Method in brief: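 Molecular beacon-based DNA unwinding assay; compounds screened at 20 μM in triplicate, with DMSO-only negative and 500 nM dT20 positive controls. Fluorescence (ex 643/em 670 nm) was read before and 30 min after adding ATP to 1 mM. Percent inhibition came from the change relative to DMSO controls; interference from pre-ATP fluorescence versus DMSO controls.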

[1] = MBHA with DNA substrate, assay interference calculated with Equation 2
[2] = assay interference calculated with Equation 2 (fluorescence vs DMSO-only controls before ATP)

T1 sequence (Q9WMX2 1192-1657): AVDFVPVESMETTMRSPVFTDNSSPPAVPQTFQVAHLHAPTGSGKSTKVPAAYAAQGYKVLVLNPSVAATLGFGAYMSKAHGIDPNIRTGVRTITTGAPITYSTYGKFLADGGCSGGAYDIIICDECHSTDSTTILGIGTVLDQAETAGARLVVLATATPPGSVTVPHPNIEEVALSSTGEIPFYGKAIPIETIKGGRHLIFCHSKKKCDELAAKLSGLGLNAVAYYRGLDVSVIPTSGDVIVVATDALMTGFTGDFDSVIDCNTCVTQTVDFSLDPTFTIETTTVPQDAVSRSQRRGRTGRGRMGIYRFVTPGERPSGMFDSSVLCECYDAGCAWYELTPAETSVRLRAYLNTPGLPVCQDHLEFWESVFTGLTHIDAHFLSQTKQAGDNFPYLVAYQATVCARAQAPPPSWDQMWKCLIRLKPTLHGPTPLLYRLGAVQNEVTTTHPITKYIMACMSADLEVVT

Row | Int.* (Ratio) (Interference) [1] | Inh. (%) (Inhibition) (MBHA with DNA substrate) | Inh. (%) (Inhibition) (MBHA with a DNA substrate) | Int.* (Ratio) (Interference) [2] | Structure (SMILES)
1 | 1.06 Ratio | 37.4% |  |  | CC(=O)OC[C@H]1O[C@@H](NC(=O)N(CCCl)N=O)[C@H](OC(C)=O)[C@@H](OC(C)=O)[C@@H]1OC(C)=O [Compound 245432]
2 | 1.08 Ratio | 3.0% |  |  | COc1cc(NS(C)(=O)=O)ccc1Nc1c2ccccc2nc2ccccc12 [Compound 249992]
3 | 0.78 Ratio | 2.4% |  |  | O=C([CH-]C(=O)C(F)(F)F)c1ccccc1.O=C([CH-]C(=O)C(F)(F)F)c1ccccc1.O=C([CH-]C(=O)C(F)(F)F)c1ccccc1.O=C([CH-]C(=O)C(F)(F)F)c1ccccc1.[Eu+3].c1ccncc1 [Compound 253995]
4 | 0.77 Ratio | 31.7% |  |  | CO[C@H]1/C=C\C=C(/C)C(=O)NC2=CC(=O)C(N)=C(C[C@@H](C)C[C@H](OC)[C@H](O)[C@@H](C)/C=C(\C)[C@@H]1OC(N)=O)C2=O [Compound 255109]
5 | 1.02 Ratio | −0.4% |  |  | CC(C)N.CC(C)N.[Cl-].[Cl-].[OH-].[OH-].[Pt] [Compound 256927]
6 | 1.08 Ratio | −8.4% |  |  | Clc1ccccc1C(c1ccccc1)(c1ccccc1)n1ccnc1 [Compound 257473]
7 | 0.64 Ratio | 46.4% |  |  | COc1cccc2c1C(=O)c1c(O)c3c(c(O)c1C2=O)C[C@@](O)(C(C)=O)C[C@@H]3OC1CC(N(C)C)C(O)C(C)O1.Cl (some centres unmarked) [Compound 258812]
8 |  |  | 10.7% | 0.27 Ratio | COc1ccc2c(NCCCCCCNc3c4ccccc4nc4cc(OC)ccc34)c3ccccc3nc2c1 [Compound 260610]
9 |  |  | 9.6% | 0.96 Ratio | Nc1cc2[nH]cnc2c(=O)[nH]1 [Compound 261726]
10 |  |  | −3.4% | 0.95 Ratio | COc1ccc(/C=C2\N=C(c3ccccc3)OC2=O)c(OCc2ccccc2)c1 [Compound 262665]
11 |  |  | −43.3% | 1.28 Ratio | NC1=NCN([C@@H]2O[C@H](CO)[C@@H](O)[C@H]2O)C(=O)N1 [Compound 264880]
12 |  |  | 8.9% | 0.82 Ratio | CC[C@@]1(O)C[C@H](O[C@H]2C[C@H](N(C)C)[C@H](O[C@H]3C[C@H](O)[C@H](O[C@H]4C[C@H](O)[C@H](O)[C@H](C)O4)[C@H](C)O3)[C@H](C)O2)c2c(cc3c(c2O)C(=O)c2c(O)ccc(O)c2C3=O)[C@H]1C(=O)OC [Compound 265211]
13 | 1.00 Ratio | −9.8% |  |  | NC1CCCCC1N.[Cl-].[Cl-].[Pt+2] (centres unmarked) [Compound 265459]
14 |  |  | 11.0% | 0.96 Ratio | CCCCCCCCCCSCC(CO)NC(=O)/C=C/c1c(C)[nH]c(=O)[nH]c1=O (centres unmarked) [Compound 265473]
15 | 1.05 Ratio | 2.9% |  |  | COc1ccc(S(=O)(=O)N/N=C/C(=O)O)cc1 [Compound 267213]
16 | 1.01 Ratio | −14.4% |  |  | CC1OC(CC(=O)O)CC2=C1C(=O)c1c(O)cccc1C2=O (centres unmarked) [Compound 267461]
17 |  |  | −24.0% | 1.04 Ratio | CCNC(=O)OCc1c(COC(=O)NCC)c(-c2ccc(Cl)c(Cl)c2)n2c1CCC2 [Compound 267700]

Row | Int.* (Ratio) (Interference) [1] | Inh. (%) (Inhibition) (MBHA with DNA substrate) | Inh. (%) (Inhibition) (MBHA with a DNA substrate) | Int.* (Ratio) (Interference) [2] | Structure (SMILES)
18 | 0.96 Ratio | 0.2% |  |  | CC(C)CCCCCCCCCCCCC(=O)NCC(=O)NC1C(C)OC(Nc2ncnc3nc[nH]c23)C(O)C1O (centres unmarked) [Compound 268251]
19 | 0.89 Ratio | 15.0% |  |  | COC(C(=O)C(O)C(C)O)C1Cc2cc3cc(OC4CC(OC5CC(O)C(O)C(C)O5)C(O)C(C)O4)c(C)c(O)c3c(O)c2C(=O)C1OC1CC(OC2CC(OC3CC(O)C(OC)C(C)O3)C(O)C(C)O2)C(O)C(C)O1 (centres unmarked) [Compound 269146]
20 |  |  | −4.1% | 0.71 Ratio | CO[C@@H]1C[C@](C)(O)Cc2cc3c(c(O)c21)C(=O)c1c(O)cc2c(c1C3=O)O[C@@H]1O[C@@]2(C)[C@H](O)[C@@H](N(C)C)[C@@H]1O [Compound 269148]
21 | 0.26 Ratio | 105.0% |  |  | Cc1cc(NCCCCCCCNc2cc(C)nc3cc(N)ccc23)c2ccc(N)cc2n1 [Compound 273829]
22 | 0.88 Ratio | 16.2% |  |  | COc1cc2c(cc1Oc1ccc(OC)c3c1CC1c4c(cc(OC)c(OC)c4-3)CCN1C)CC1c3c(cc(OC)c(OC)c3-2)CCN1C (centres unmarked) [Compound 274893]
23 | 1.15 Ratio | 1.1% |  |  | C[C@@H](N)C(=O)NC(CO)C(O)C(N)C=O.Cl (some centres unmarked) [Compound 278619]
24 |  |  | −3.7% | 1.08 Ratio | CC[C@H](C)C(=O)O[C@H]1CCC=C2C=C[C@H](C)[C@H](CC[C@@H]3C[C@@H](O)CC(=O)O3)[C@H]21 [Compound 281245]
25 |  |  | −5.5% | 1.00 Ratio | C=C1C(=O)OC2C1CC1OC2C(C)CCC/C(C)=C\CCC1(C)O (centres unmarked) [Compound 282752]
26 | 0.85 Ratio | 5.8% |  |  | CCCCCCCCCCCCCCCCCCOP(=O)([O-])OCC[N+](C)(C)C [Compound 282880]
27 | 1.08 Ratio | −12.0% |  |  | CN(CO)c1nc(N(C)CO)nc(N(C)CO)n1 [Compound 283162]
28 | 1.10 Ratio | 0.0% |  |  | O=C1NC(=O)[C@H]2[C@H]3C=C[C@@H]([C@@H]12)[C@@H]1[C@H]2C(=O)NC(=O)[C@H]2[C@H]31 [Compound 284356]
29 |  |  | −4.0% | 1.05 Ratio | Nc1ncnc2c1nc(Cl)n2[C@@H]1O[C@@H]2COP(=O)(O)O[C@H]2[C@H]1O [Compound 284751]
30 | 0.90 Ratio | −0.3% |  |  | C=C(NC(=O)C(=C)NC(=O)c1csc(C2=N[C@@H]3c4csc(n4)C4NC(=O)c5csc(n5)C([C@](C)(O)[C@@H](C)O)NC(=O)[C@H]5CSC(=N5)/C(=C/C)NC(=O)C(C(C)O)NC(=O)c5csc(n5)C3(CC2)NC(=O)[C@H](C)NC(=O)C(=C)NC(=O)C(=C)NC(=O)C(C(C)C)N[C@@H]2C=Cc3c([C@@H](C)O)cc(nc3[C@H]2O)C(=O)OC4C)n1)C(N)=O (some centres unmarked) [Compound 285116]
31 | 1.13 Ratio | 1.1% |  |  | NC(=O)c1csc(C2OC(CO)C(O)C2O)n1 (centres unmarked) [Compound 286193]
32 | 1.01 Ratio | 28.3% |  |  | CCN(CC)CCNC(=O)c1nn(-c2ccc(Cl)cc2)c2c1CCc1cc(OC)ccc1-2 [Compound 288010]
33 | 1.07 Ratio | −2.1% |  |  | O=C1C2=Nc3ccccc3C(O)N2c2ccccc21 (centres unmarked) [Compound 292147]

Row | Structure (SMILES) | Int.* (Ratio) (Interference) [1] | Inh. (%) (Inhibition) (MBHA with DNA substrate) | Inh. (%) (Inhibition) (MBHA with a DNA substrate) | Int.* (Ratio) (Interference) [2]
34 | CNC(=O)ON(C(C)=O)C(=O)NC [Compound 253272] | 0.97 Ratio | 5.5% |  | 
35 | C[n+]1ccc(-c2cc[n+](C)cc2)cc1.[Cl-].[Cl-] [Compound 263500] | 1.18 Ratio | −8.7% |  | 
36 | COC1C(C)OC(OC2CC(C)(O)Cc3cc4c(c(O)c32)C(=O)c2c(O)cc3c(c2C4=O)OC2OC3(C)C(O)C(N(C)C)C2O)C(OC)C1(C)OC (centres unmarked) [Compound 265450] | 0.54 Ratio | 38.9% |  | 
37 | O=C1N[C@@H]2C(=C[C@H](O)[C@@H](O)[C@H]2O)c2cc3c(c(O)c21)OCO3 [Compound 266535] |  |  | −5.9% | 0.87 Ratio
38 | CC(=O)O[C@@H]1C[C@H]2O[C@@H]3C=C(C)CC[C@]3(C)[C@]1(C)[C@]21CO1 [Compound 267033] | 1.04 Ratio | 6.7% |  | 
39 | CC[C@@]1(O)C[C@H](O[C@H]2C[C@H](N(C)C)[C@H](O)[C@H](C)O2)c2c(cc3c(c2O)C(=O)c2c(O)ccc(O)c2C3=O)[C@H]1C(=O)OC [Compound 267229] | 0.49 Ratio | 31.5% |  | 
40 | C=C(C)C(=O)OC1CCC2(C)C(CCC3C2CCC2(C)C(c4ccc(=O)oc4)CC4OC432)C1 (centres unmarked) [Compound 267712] |  |  | −22.8% | 1.09 Ratio
41 | COc1cccc2c1C(=O)c1c(O)c3c(c(O)c1C2=O)C[C@@](O)(C(C)=O)C[C@@H]3O[C@H]1C[C@H](N(Cc2ccccc2)Cc2ccccc2)[C@H](O)[C@H](C)O1.Cl [Compound 268242] | 0.88 Ratio | 30.6% |  | 
42 | CC[n+]1c(-c2ccccc2)c2cc(N)ccc2c2ccc(N)cc21.[Br-] [Compound 268986] | 0.81 Ratio | 36.0% |  | 
43 | CC1=C[C@H]2O[C@@H]3[C@H](O)[C@@H](O)[C@@](C)([C@@]2(CO)CC1)[C@]31CO1 [Compound 269142] |  |  | −19.6% | 1.07 Ratio
44 | Oc1cccc2cccnc12 [Compound 285166] | 0.95 Ratio | −2.2% |  | 
45 | COc1cc2c(cc1O)N=CC1CCC(O)N1C2=O (centres unmarked) [Compound 285223] |  |  | −26.2% | 1.01 Ratio
46 | CC12CCC3C(CCC4CC(OC(=O)Cc5ccc(N(CCCl)CCCl)cc5)CCC43C)C1CCC(=O)N2 (centres unmarked) [Compound 290205] | 1.03 Ratio | 34.9% |  | 
